Test results reported in US11008619B2, “Diagnostic markers for platelet function and methods of use” (Duke University, priority 2012, dated 2021).

Assays:
[1] = tested on: human promyelocytic cell line (HL60); settings: HL60, in vitro aspirin vs vehicle-only control; cited from earlier work
[2] = tested on: COX-1 dependent platelet function; experiment: Arachidonic acid-induced platelet aggregation (light transmittance aggregometry), with and without in vitro aspirin; type: in vivo, human
Experimental: (§1) Platelet function studies. Before each visit, subjects were asked to fast and to refrain from tobacco (during the preceding 24 hrs) and alcohol or intensive exercise on the day of testing. Phlebotomy was performed after 10 minutes of resting supine with minimal trauma or stasis at the venipuncture site using a 21-gauge needle into 3.2% sodium citrate tubes. The focus of these studies was around NCDPF and thus, the NCDPF assays were defined as the following: PFA100, and epinephrine, ADP, and collagen induced LTA. […] Serum thromboxane B2 and AA induced aggregation were chosen as measures of COX-1 activity and also added in vitro aspirin to the AA aggregation assay to further assess for any evidence of unsuppressed COX-1 activity.
(§2) Light transmittance aggregometry. Light transmittance aggregometry (LTA) was performed as previously described (Born (1964) Nature 202:95-96) using the following agonists: arachidonic acid (AA, Chrono-log, 0.5 mM), epinephrine (Chrono-Log, 10, 1, and 0.5 μM), ADP (Chrono-Log, 10, 5, and 1 μM), and collagen (Chrono-Log, 5 and 2 μg/ml). The area under the LTA curve (AUC) was chosen as the primary measure of aggregation because the AUC captures several features of the aggregometry curve that are each sensitive to the effects of aspirin: slope, maximal aggregation, and final aggregation. To standardize AUC measurements across individuals and visits the test duration was fixed at 12 minutes for epinephrine and six minutes for collagen, AA, and ADP.

[3] = tested on: RUNX1 P1 and total transcripts in purified platelets; experiment: Platelet RNA RT-PCR for RUNX1 transcripts before and after aspirin exposure; type: in vivo, human; settings: healthy volunteers, before vs after aspirin exposure
Experimental: Platelet purification and RNA isolation.
RNA was extracted from peripheral blood derived platelets using the miRvana miRNA Isolation Kit (Life Technologies) with acid-phenol chloroform (Life Technologies) separation. Due to the low concentration of available platelet RNA, concentration and integrity were assessed using the Agilent 2100 Bioanalyzer Pico chips (Agilent Technologies; Santa Clara, Calif.). The concentration was too low for accurate determination via standard spectrophotometric methods and for the Agilent Pico RIN algorithm to accurately determine a RIN quality score. As a result, quality was assessed by visualization of the Bioanalyzer lane curve. RNA samples with obvious 18S and 28S peaks, minimal degradation “noise” between peaks, and no large aberrant peaks above or below the 18S and 28S bands were selected for further analysis. […]
Concentration and integrity of available platelet RNA were assessed using Agilent 2100 Bioanalyzer Pico chips (Agilent Technologies; Santa Clara, Calif.). […] As a result, quality was assessed by visualization of the Bioanalyzer trace. […]
A loading test plate was run using 4 samples; 2 from each experimental group. […] Optimal loading would result in expression of our lowest targets of interest resulting in Cq values <35, abundant transcripts >18 and a minimal loss of low quantity samples to high RNA loading requirements. […]

[4] = tested on: non COX-1 dependent platelet function (NCDPF); experiment: Platelet function score (PFS) in aspirin challenge study; type: in vivo, human; settings: for mean difference in Pre vs. Post PFS: before vs 3 hrs after single 325 mg aspirin, p<0.0001; for Post PFS: after first 325 mg dose
Experimental: A group of healthy adult volunteers (HV1) were recruited and a defined set of platelet function measurements, as described below, were made before aspirin (“Pre”) and 3-hrs after (“Post”) a single 325 mg tablet of aspirin. Subsequently, subjects were returned for a final assessment (“Final”) 2 weeks after 325 mg/day aspirin. This dose of aspirin was chosen to ensure complete suppression of platelet COX-1 activity in each participant. The 3-hour timepoint was chosen to measure the maximal inhibitory effect of aspirin.
as §1, §2
Platelet Function Analyzer. PFA100 closure time with the use of the collagen/epinephrine cartridge was performed. […] Briefly, citrated whole blood was placed in the PFA100 chamber and blood was aspirated through an aperture in a collagen/epinephrine coated membrane. The amount of time (in seconds[s], up to a maximum of 300 s) until blood ceased to flow through the membrane aperture was recorded as the final result.
Platelet Function Score. […] A platelet function score was derived from a principal components analysis (PCA) of all platelet function measurements made in the HV1 cohort. PCA was chosen to quantify this biological factor. PCA is an unbiased, mathematical technique for reducing a collection of measurements down to a single “meta-measurement” that best describes the aggregate behavior of the set. For example, in the biological sciences, PCA can quantify population substructure in genome wide association studies, patterns of gene expression in microarray experiments, and metabolic pathways in metabolomic studies. In the present study, the input into the PCA was the following set of non-imputed measures from the HV1 cohort: the PFA100 closure time and the AUC from each concentration of ADP, epinephrine, and collagen LTA.

COX-1 activity = experiment: Serum thromboxane B2 ELISA; type: in vivo, human; settings: HV2; Final visit after 4 weeks 325 mg/day aspirin; range 0.1-2.0
Experimental: as §1

[5] = tested on: non COX-1 dependent platelet function (NCDPF); experiment: In vitro addition of aspirin to PRP, epinephrine/ADP/collagen induced light transmittance aggregometry; type: cell-based, human; settings: n=5 HV2 and n=15 DM on daily aspirin
Experimental: Light transmittance aggregometry. […] The area under the LTA curve (AUC) was chosen as the primary measure of aggregation because the AUC captures several features of the aggregometry curve that are each sensitive to the effects of aspirin: slope, maximal aggregation, and final aggregation. To standardize AUC measurements across individuals and visits the test duration was fixed at 12 minutes for epinephrine and six minutes for collagen, AA, and ADP.
Description of area under the curve (AUC) measurement. Using light transmittance aggregometry the percent aggregation is plotted over time to produce the upper curve similar to FIG. 21. The AUC is measured by the aggregometer over the duration of the test, which is fixed at 6 minutes for collagen and ADP and 12 minutes for epinephrine. Higher AUC values reflect higher maximal and residual aggregation, slope, and velocities.
In vitro aspirin. A stock solution of aspirin was created by dissolving acetylsalicylic acid (Sigma-Aldrich A5376) into DMSO and aliquots stored at −80 degrees Celsius. On the day of use, fresh aliquots were thawed, diluted in PBS, and stored at 4 degrees Celsius. […] The PRP was allowed to incubate with in vitro aspirin for 10 minutes at room temperature prior to the addition of agonist.

CC(=O)Oc1ccccc1C(=O)O [aspirin, acetylsalicylic acid]
expression of a P1-specific RUNX1 probe set [1]: increased | expression of the remaining RUNX1 probe sets [1]: did not change | expression of two P2 RUNX1 probe sets [1]: decreased | AAA median % aggregation ([2]; HV2 and DM subjects, Final visit on daily 325 mg aspirin, range 0-7%): 3.0% | effect of in vitro addition of aspirin on AAA ([2]; in vitro aspirin 53 μM added after 325 mg oral dose, HV2 and DM): no further effect | COX-1 dependent platelet function, as assessed by AAA ([2]; single 325 mg dose, all HV2 and DM subjects, AA 0.5 mM): effectively suppressed | change in total RUNX1 gene expression [3]: minimal changes | up (or down) regulation in P1 RUNX1 expression [3]: ≤ 5 fold | mean difference in Pre vs. Post PFS ([4]; DM diabetics, 95% CI 3.6-4.8): 4.2 | mean difference Post and Final PFS ([4]; HV1, after two weeks of 325 mg/day aspirin, shifted higher, CI 0.1-0.8, p=0.01): 0.5 | mean difference in Pre vs. Post PFS ([4]; HV1 healthy volunteers, 95% CI 3.0-3.7): 3.4 | mean difference between Post and Final PFS ([4]; HV2, after four weeks of 325 mg/day aspirin, shift to higher PFS, CI 0.2-1.2, p=0.004): 0.7 | mean difference in Pre vs. Post PFS ([4]; HV2 healthy volunteers, 95% CI 4.5-5.2): 4.8 | Post PFS ([4]; HV2 subjects that decreased their Final PFS): 1.68 | Post PFS ([4]; HV2 subjects that increased their Final PFS): −1.0 | serum thromboxane B2 mean concentration (COX-1 activity): 0.3 ng/mL | mean change aggregation with in vitro aspirin ([5]; ADP 5 μM, CI −6.9-2.4%, p=0.3): −2.3% | mean change aggregation with in vitro aspirin ([5]; collagen 2 mg/ml, CI −6.9, 10.0, p=0.71): 1.5% | mean change aggregation with in vitro aspirin ([5]; epinephrine 0.5, CI −0.8-4.8%, p=0.2): 2.0%
